Test results reported in PMC9042912, “T cell receptor and IL-2 signaling strength control memory CD8^+ T cell functional fitness via chromatin remodeling” (Nature Communications, 2022).
No end group written: not given here.

Biological target: T1, H2-K^b (Mus musculus, UniProt P01901)
T1 construct: RMA-S cells were added per well to a 96-well flat-bottom plate and incubated at 30 °C overnight; endogenous in cells; host or cells: RMA-S cells (TAP-deficient), obtained from Dr. Steve Porcelli
T1 sequence (P01901 22-369): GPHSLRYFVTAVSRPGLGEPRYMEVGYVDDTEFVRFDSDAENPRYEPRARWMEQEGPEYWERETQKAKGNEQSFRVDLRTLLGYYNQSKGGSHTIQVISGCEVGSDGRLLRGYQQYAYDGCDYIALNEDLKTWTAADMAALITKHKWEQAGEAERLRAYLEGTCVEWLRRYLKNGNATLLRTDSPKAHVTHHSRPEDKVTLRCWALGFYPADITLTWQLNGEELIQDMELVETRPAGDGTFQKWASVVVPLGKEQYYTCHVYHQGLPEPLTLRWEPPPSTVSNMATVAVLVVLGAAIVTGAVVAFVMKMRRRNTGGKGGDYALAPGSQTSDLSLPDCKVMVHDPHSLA
T1 sequence (P01887 21-119 partner): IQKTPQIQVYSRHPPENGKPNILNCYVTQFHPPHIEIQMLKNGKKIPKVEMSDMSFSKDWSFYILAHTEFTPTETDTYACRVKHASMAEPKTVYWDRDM
Experiment: cell-based

SIINFEKA [A8]
Kd: 351 nM
